Assay results: US20110027341A1, “DEVICE FOR IN SITU PRODUCTION AND TOPICAL ADMINISTRATION OF ALLICIN” (YEDA RESEARCH AND DEVELOPMENT CO., LTD. at the Weizmann …, priority 2008, published 2011)

Columns and labels:
various microorganisms = assay: Sensitivity tests of microorganisms to pure allicin and to allicin from dry alliin/alliinase mixtures (liquid culture, disk filters on agar, tampons); type: cell-based; settings: for LD50: range over the various microorganisms tested
Description: In this experiment, the effect of allicin released upon wetting of the medicated tampons on various microorganisms, kindly provided by Dr. N. Keller from the clinical microbiology laboratory of the Sheba Medical Center (Tel HaShomer, Israel), was tested. The list of microorganisms included various types of yeasts, in particular, Saccharomyces cerevisiae, Candida albicans and Candida Glabrata; and several types of bacteria, in particular, group B Streptococci, methicillin-resistant Staphylococcus aureus (MRSA) and vancomycin-intermediate Staphylococcus aureus (VISA). In addition, two strains of Trichomonas vaginalis, one adherent to the plastic of the tube and the other non-adherent, were tested.
In addition, various mixtures of dry alliin and dry alliinase were placed inside the cleft of vaginal tampons to yield different amounts of allicin in tubes containing liquid medium with bacteria or yeasts, wherein following overnight incubation, aliquots were taken from the tubes and plated on nutrient agar plates, and the number of colonies developed was determined in comparison to untreated controls. The effects of allicin on Trichomonas vaginalis was tested in liquid cultures, and the viability of the trophozoites after exposure to different concentrations of allicin was determined by the methylene blue vital dye exclusion as previously described (Kiernan, 1974).
Dry glass fiber filters on which a solution containing 5, 20 or 30 μg of pure allicin was dripped just before placing on the seeded agar served as standards, and dry glass fiber filters that were placed on the seeded agar were used as controls.

[1] = kept at cold temperatures, pH around 6; cited from earlier work
Trichomonas vaginalis = assay: In vitro growth of Trichomonas vaginalis trophozoites with pure allicin (hemacytometer count); type: cell-based; settings: 24 hours, 37° C.
Description: The effect of allicin on the different microorganisms was tested in (i) sensitivity tests to different concentrations of pure allicin in liquid culture tubes containing full nutrient medium; […] The effects of allicin on Trichomonas vaginalis was tested in liquid cultures, and the viability of the trophozoites after exposure to different concentrations of allicin was determined by the methylene blue vital dye exclusion as previously described (Kiernan, 1974). […] Aliquotes were taken following incubation of 24 hours and the number of trophozoites was counted using a hemacytometer.

[2] = system: nail fungus (onychomycosis); assay: Repeated topical application of pure allicin on infected toenails of volunteers; type: in vivo
Description: In this preliminary study, the effect of repeated topical application of pure allicin on an infected nail was examined. The study was performed on a group of 10 volunteers infected with nail fungus (onychomycosis), wherein only toenails showing visible signs of being infected with a nail fungus were chosen for the topical treatment. […] The allicin solution was kept at 4° C. in citrate buffer pH 6.0 containing 1 M urea in a dark flask. A round cotton pad was cut in the approximate dimensions and size of the infected toenail (1.3 cm diameter×0.3 cm thick). 0.5 ml of the allicin solution was slowly delivered with a pipette to the surface of the cotton pad and the wet cotton pad was placed on the nail, taking precaution so as not to touch the skin surrounding the nail. The toe with the cotton pad was then covered overnight with a strip made of nylon to secure the pad on the nail and to prevent the spread of the volatile smelly odor of allicin. This treatment was repeated every night for 14 days. […] The treatment was then repeated once a week until all the infected regions of the old nail were cut off.

Trichoderma hyphae = assay: Antifungal activity of the two-filter delivery system on agar plates (halo of inhibition); type: cell-based; settings: for inhibition of fungal growth (halo around filter): filters placed 6 h after seeding 5×10^6 spores, 28° C., overnight incubation, FIG. 3A; for inhibition of fungal growth (halo around filter), mature growth: filters placed after 24 hours incubation, further 16 h, FIG. 3B
Description: In this experiment, the effect of allicin released upon wetting of the two-filter delivery system on spores of Trichoderma hyphae was tested. In particular, four Petri dish plates containing nutrient agar for fungal growth were seeded with 5×10^6 spores of a test soil fungi (Trichoderma hyphae) and incubated at 28° C. […] Additional two plates in each of which a single glass fiber filter containing either the substrate or the enzyme were placed were used as controls and treated the same way. A fourth plate containing only the fungus served as the positive control, and a fifth plate without any fungus was used as the negative control.
A similar experiment was carried out with identical filters on Petri dish plates that contained a more mature Trichoderma hyphae growth (after 24 hours incubation from seeding of the same number of spores). The filters were placed as described above and the plates were incubated for another 16 h.

[3] = Storage stability of dry alliin/alliinase components and filters (potential to produce allicin); type: physicochemical; settings: dry form at room temperature

Molecule | killing of microorganisms (various microorganisms; all experiments, irrespective of type of microorganism, FIGS. 4-5 and Table 1) | LD50 (various microorganisms) | LD50 (various microorganisms; as μM allicin) | degradation rate [1] | Trophozoites (×10^4) (Trichomonas vaginalis; allicin 5 μg/ml) | Trophozoites (×10^4) (Trichomonas vaginalis; allicin 10 μg/ml) | Trophozoites (×10^4) (Trichomonas vaginalis; allicin 15 μg/ml) | Trophozoites (×10^4) (Trichomonas vaginalis; allicin 25 μg/ml) | outcome of infected toenails after treatment ([2]; 0.5 ml of 0.5 mg/ml allicin solution (citrate buffer pH 6.0, 1 M urea) on cotton pad overnight, every night 14 days, then once a week, 10 volunteers) | tolerability: treatment not completed because of garlic smell ([2]; 10 volunteers) | color of the fungus in the nail ([2]; by the third day of the treatment) | time toenails remained fungus free ([2]; in some cases) | color of the emerging new nail ([2]; within two weeks) | inhibition of fungal growth (halo around filter) (Trichoderma hyphae) | inhibition of fungal growth (halo around filter), mature growth (Trichoderma hyphae) | preservation of potential for producing allicin [3]
C=CCS[S+]([O-])CC=C (stereo not drawn) [allicin, diallyl thiosulfinate] | effective killing | 8 to 15 µg/mL | 20 to 50 µM | 8 %/month | 48 ×10^4 | 45 ×10^4 | 8 ×10^4 | 3 ×10^4 | eight individuals had a remarkably healthy regeneration of their toenails | Two individuals did not complete the treatment | turned from dark green to yellowish white | over 2 years | resumed its natural color |  |  | 
alliin |  |  |  |  |  |  |  |  |  |  |  |  |  | No such halos were seen | such halo is not visible | 
alliinase |  |  |  |  |  |  |  |  |  |  |  |  |  | No such halos were seen | such halo is not visible | preserved their potential for producing allicin for several months
